Laboratory results reported in US11851391B2, “Antifungal compounds and methods of forming the same” (University of Kentucky Research Foundation, priority 2018, dated 2023).
Values after ≈ are worked out from the molar mass of the structure shown. Where two headings read alike, the source gives them in different places.

Experiments:
[1] = system: Candida glabrata ATCC 2001 (strain H); test: MIC determination, in vitro antifungal assay (CLSI M27-A3); format: cell-based; details: MIC-0, 48 h at 35° C.
Experimental: (§1) The activity of N,N′-diaryl-bishydrazones 7-22 was tested against a panel of seven strains of C. albicans: ATCC 10231(R) (A), ATCC 64124(R) (B), ATCC MYA-2876(S) (C), ATCC 90819(R) (D), ATCC MYA-2310(S) (E), ATCC MYA-1237(R) (F), and ATCC MYA-1003(R) (G). The activity of these bishydrazones 7-22 was also explored against a panel of three non-albicans Candida strains: C. glabrata ATCC 2001 (H), C. krusei ATCC 6258 (I), and C. parapsilosis ATCC 22019 (J). Finally, the activity of these bishydrazones 7-22 was explored against three Aspergillus strains: A. flavus ATCC MYA-3631 (K), A. nidulans ATCC 38163 (L), and A. terreus ATCC MYA-3633 (M).
(§2) Candida albicans ATCC 10231 (A), C. albicans ATCC 64124 (B), and C. albicans ATCC MYA-2876 (C) were kindly provided by Dr. Jon Y. Takemoto (Utah State University, Logan, UT, USA). C. albicans ATCC 90819 (D), C. albicans ATCC MYA-2310 (E), C. albicans ATCC MYA-1237 (F), C. albicans ATCC MYA-1003 (G), Candida glabrata ATCC 2001 (H), Candida krusei ATCC 6258 (I), Candida parapsilosis ATCC 22019 (J), Aspergillus flavus ATCC MYA-3631 (K), and Aspergillus terreus ATCC MYA-3633 (M) were obtained from the American Type Culture Collection (ATCC; Manassas, VA, USA). Aspergillus nidulans ATCC 38163 (L) was received from Dr. Jon S. Thorson (University of Kentucky, Lexington, KY, USA). Filamentous fungi and yeasts were cultivated at 35° C. in RPMI 1640 medium (with 1-glutamine, without sodium biocarbonate, Sigma-Aldrich, St. Louis, MO) buffered to a pH of 7.0 with 0.165 M morpholinepropanesulfonic acid (MOPS) buffer (Sigma-Aldrich).
(§3) A single colony of freshly prepared yeast cells was used to inoculate 5 mL of yeast extract peptone dextrose (YPD) broth prior to incubation overnight with shaking at 200 rpm at 35° C. From the actively growing yeast culture, 100 μL were then transferred to 900 μL of sterile ddH2O and re-adjusted to achieve OD600 of 0.12 (˜1×10^6 CFU/mL). The cell suspension was further diluted to achieve 2-4×10^3 CFU/mL in RPMI 1640 medium. […] The final concentration of DMSO was ensured to be <1.25% in all experiments.

[2] = system: Candida krusei ATCC 6258 (strain I); test: as above; format: cell-based; details: Pichia kudriavzevii, ATCC6258, 48 h, MIC-0, 48 h at 35° C., read-out: MIC
Experimental: as §1, §2, §3

[3] = system: C. albicans ATCC 90819(R) (strain D); test: as above; format: cell-based, Candida albicans; details: Candida albicans, ATCC90819, 48 h, MIC-0, 48 h at 35° C., read-out: MIC
Experimental: as §1, §2
as §3, with “The MIC values of compounds 7a-24c against yeast cells (strains A-J) were determined in 96-well plates as described in the CLSI document M27-A3 with minor modifications. A” for “A”, “experiments. The MIC values for compounds 7a-24c and CAS were defined as the minimum drug concentration that yielded complete inhibition (also known as MIC-0).” for “experiments.”

[4] = system: C. albicans ATCC 64124(R) (strain B); test: as above; format: cell-based, Candida albicans; details: Candida albicans, ATCC64124, 48 h, strain B; MIC-0; 48 h at 35° C.; read-out: MIC
Experimental: as §1, §2
as §3, with “The MIC values of compounds 7a-24c against yeast cells (strains A-J) were determined in 96-well plates as described in the CLSI document M27-A3 with minor modifications. A” for “A”, “experiments. The MIC values for compounds 7a-24c and CAS were defined as the minimum drug concentration that yielded complete inhibition (also known as MIC-0).” for “experiments.”

[5] = system: C. albicans ATCC MYA-2310(S) (strain E); test: as above; format: cell-based, Candida albicans; details: Candida albicans, 48 h, MIC-0, 48 h at 35° C., read-out: MIC
Experimental: as §1, §2
as §3, with “The MIC values of compounds 7a-24c against yeast cells (strains A-J) were determined in 96-well plates as described in the CLSI document M27-A3 with minor modifications. A” for “A”, “experiments. The MIC values for compounds 7a-24c and CAS were defined as the minimum drug concentration that yielded complete inhibition (also known as MIC-0).” for “experiments.”

[6] = system: C. albicans ATCC MYA-1237(R) (strain F); test: as above; format: cell-based, Candida albicans; details: MIC-0, 48 h at 35° C.
Experimental: as §1, §2
as §3, with “The MIC values of compounds 7a-24c against yeast cells (strains A-J) were determined in 96-well plates as described in the CLSI document M27-A3 with minor modifications. A” for “A”, “experiments. The MIC values for compounds 7a-24c and CAS were defined as the minimum drug concentration that yielded complete inhibition (also known as MIC-0).” for “experiments.”

[7] = system: Aspergillus terreus ATCC MYA-3633 (strain M); test: MIC determination against filamentous fungi (CLSI M38-A2); format: cell-based; details: Aspergillus terreus, 48 h, MIC-0, 48 h at 35° C., read-out: MIC
Experimental: as §1, §2
(§4) Similarly, the MIC values of compounds 7a-24c, as well as that of the two control drugs against filamentous fungi (strains K-M) were determined as previously described in CLSI document M38-A2. Spores were harvested from sporulating cultures growing on potato dextrose agar (PDA) by filtration through sterile glass wool and enumerated by using a hemocytometer to obtain the desired inoculum size. […] Spore suspensions were added to the wells to afford a final concentration of 5×10^5 CFU/mL. The plates were incubated at 35° C. for 48 h. The MIC values of compounds 7a-24c and CAS against filamentous fungi were based on the complete inhibition of growth when compared to the growth control (MIC-0). […] Each test was performed in triplicate.

[8] = system: Aspergillus flavus ATCC MYA-3631 (strain K); test: as above; format: cell-based; details: Aspergillus flavus, 48 h, MIC-0, 48 h at 35° C., read-out: MIC
Experimental: as §1, §2, §4

[9] = system: Aspergillus nidulans ATCC 38163 (strain L); test: as above; format: cell-based; details: Aspergillus nidulans, ATCC38163, 48 h, MIC-0, 48 h at 35° C., read-out: MIC
Experimental: as §1, §2, §4

[10] = system: C. albicans ATCC MYA-2876(S) (strain C); test: MIC determination, in vitro antifungal assay (CLSI M27-A3); format: cell-based, Candida albicans; details: Candida albicans, 48 h, MIC-0, 48 h at 35° C., read-out: MIC
Experimental: as §1, §2, §3

[11] = system: C. albicans ATCC MYA-1003(R) (strain G); test: as above; format: cell-based, Candida albicans; details: Candida albicans, 48 h, MIC-0, 48 h at 35° C., read-out: MIC
Experimental: as §1, §2, §3

[12] = system: Candida albicans ATCC 10231(R) (strain A); test: as above; format: cell-based; details: Candida albicans, ATCC10231, 48 h, MIC-0 (no visible growth), 48 h at 35° C., read-out: MIC
Experimental: as §1, §2
as §3, with “The MIC values of compounds 7a-24c against yeast cells (strains A-J) were determined in 96-well plates as described in the CLSI document M27-A3 with minor modifications. A” for “A”, “experiments. The MIC values for compounds 7a-24c and CAS were defined as the minimum drug concentration that yielded complete inhibition (also known as MIC-0).” for “experiments.”

[13] = system: Candida parapsilosis ATCC 22019 (strain J); test: as above; format: cell-based; details: Lodderomyces parapsilosis, ATCC22019, 48 h, strain J; MIC-0; 48 h at 35° C.; read-out: MIC
Experimental: as §1, §2
as §3, with “The MIC values of compounds 7a-24c against yeast cells (strains A-J) were determined in 96-well plates as described in the CLSI document M27-A3 with minor modifications. A” for “A”, “experiments. The MIC values for compounds 7a-24c and CAS were defined as the minimum drug concentration that yielded complete inhibition (also known as MIC-0).” for “experiments.”

[14] = Nakaseomyces glabratus, ATCC2001, 48 h, read-out: MIC
[15] = Candida albicans, 48 h, read-out: MIC

SMILES | MIC [1] | MIC [1, 14] | MIC [2] | MIC [3] | MIC [4] | MIC [5] | MIC [6, 15] | MIC [6] | MIC [7] | MIC [8] | MIC [9] | MIC [10] | MIC [11] | MIC [12] | MIC [13]
Brc1ccc(N/N=C/c2ccc(-c3cccc(/C=N/Nc4ccc(Br)cc4)c3)cc2)cc1 [Compound 19a] | 7.8 µg/mL (≈ 14.2 µM) | 7.8 µg/mL (≈ 14.2 µM) | > 31.3 µg/mL | > 31.3 µg/mL | 31.3 µg/mL (≈ 57.1 µM) | > 31.3 µg/mL | 7.8 µg/mL (≈ 14.2 µM) | 7.8 µg/mL (≈ 14.2 µM) | > 31.3 µg/mL | 31.3 µg/mL (≈ 57.1 µM) | > 31.3 µg/mL | 31.3 µg/mL (≈ 57.1 µM) | 31.3 µg/mL (≈ 57.1 µM) | 31.3 µg/mL (≈ 57.1 µM) | > 31.3 µg/mL
Fc1ccc(F)c(N/N=C/c2ccc(-c3cccc(/C=N/Nc4cc(F)ccc4F)c3)cc2)c1 [Compound 21a] | – | > 31.3 µg/mL | > 31.3 µg/mL | > 31.3 µg/mL | > 31.3 µg/mL | > 31.3 µg/mL | > 31.3 µg/mL | – | > 31.3 µg/mL | > 31.3 µg/mL | > 31.3 µg/mL | > 31.3 µg/mL | > 31.3 µg/mL | > 31.3 µg/mL | > 31.3 µg/mL
Fc1ccc(F)c(N/N=C/c2ccc(-c3ccc(/C=N/Nc4cc(F)ccc4F)cc3)cc2)c1 [Compound 21b] | – | > 31.3 µg/mL | > 31.3 µg/mL | > 31.3 µg/mL | > 31.3 µg/mL | > 31.3 µg/mL | > 31.3 µg/mL | – | > 31.3 µg/mL | > 31.3 µg/mL | > 31.3 µg/mL | > 31.3 µg/mL | > 31.3 µg/mL | 31.3 µg/mL (≈ 67.7 µM) | > 31.3 µg/mL
N=C(N)N/N=C/c1ccc(-c2ccc(/C=N/NC(=N)N)cc2)cc1 [Compound 24b] | – | > 31.3 µg/mL | 15.6 µg/mL (≈ 48.4 µM) | > 31.3 µg/mL | > 31.3 µg/mL | > 31.3 µg/mL | > 31.3 µg/mL | – | > 31.3 µg/mL | > 31.3 µg/mL | > 31.3 µg/mL | > 31.3 µg/mL | 15.6 µg/mL (≈ 48.4 µM) | 31.3 µg/mL (≈ 97.1 µM) | 3.9 µg/mL (≈ 12.1 µM)
C/C(=N\NC(=N)N)c1ccc(-c2ccc(/C(C)=N/NC(=N)N)cc2)cc1 [Compound 24c] | – | 7.8 µg/mL (≈ 22.3 µM) | 3.9 µg/mL (≈ 11.1 µM) | 3.9 µg/mL (≈ 11.1 µM) | 3.9 µg/mL (≈ 11.1 µM) | 15.6 µg/mL (≈ 44.5 µM) | 15.6 µg/mL (≈ 44.5 µM) | – | > 31.3 µg/mL | > 31.3 µg/mL | 15.6 µg/mL (≈ 44.5 µM) | 15.6 µg/mL (≈ 44.5 µM) | 15.6 µg/mL (≈ 44.5 µM) | 3.9 µg/mL (≈ 11.1 µM) | 1.95 µg/mL (≈ 5.56 µM)
